Columns and labels:
BHK cells [1] = experiment: β-galactosidase activity in lysates of BHK cells infected with Shigella strains (plasmid DNA delivery); assay type: cell-based, baby hamster; settings: for ability of the antimicrobial to mediate bacterial plasmid DNA delivery: attenuated Shigella flexneri not programmed to lyse, in BHK cells
Experimental: (§1) The protocol used for these experiments consisted of diluting an overnight culture of the bacteria 1 in 50 and allowing it to grow to midlog phase, approximately 2.5 hours. The midlog cultures were then concentrated in Hank's Balanced Salts by centrifugation to approximately 10^9 bacteria per milliliter and a small aliquot was taken to determine the midlog bacterial count. Two milliliters of bacteria were added to the appropriate semi-confluent flask of BHK cells and allowed to incubate for ninety minutes at 37° C. and 5% CO2. After the incubation, the cells were rinsed with Hank's Balanced Salts (Sigma). In most cases the flasks were treated with complete DMEM containing […] gentamicin to kill all extracellular bacteria. Either antibiotic was then added at the designated time.
(§2) Harvesting of cells was carried out as follows. At the appropriate time point media was removed from the flasks and the flasks were rinsed thoroughly with Hank's Balanced Salts followed by Edda Twiddy's EDTA. Flasks were then treated with 5 milliliters of Trypsin-EDTA for 5 minutes at 37° C. and 5% CO2 to lift the adherent mammalian cells from the flask. Ten milliliters of room temperature DMEM with serum was added to inactivate the Trypsin-EDTA. The cells were pelleted at 2000 rpm for 12 minutes at room temperature and resuspended in 10 milliliters of phosphate buffered saline (PBS).
A 100 μl aliquot was taken and diluted in 0.1 % Triton X-100 and plated on diaminopimelic acid (DAP) supplemented congo red (Sigma) tryptic soy agar for 15D or TSA without DAP for SC602. The remainder was again pelleted and resuspended in 1.3 ml PM-2 buffer. 30 μl of 10% Triton X-100 was added and the sample was incubated at room temperature and vortexed frequently for ten minutes to lyse the BHK cells. The cellular debris was pelleted for […] at 13500×g and 4° C.
Four hundred microliters of the supernatant was combined with 400 μl of PM-2 buffer in a spectrophotometric cuvette and allowed to equilibrate to 37° C. 200 μl of ONPG reagent is then added to each sample and any applicable standards. The samples were incubated at 37° C. and timed until a vibrant yellow color appeared, at which point the reaction was complete. The absorbance of each sample was measured at 420 nm and recorded. β-galactosidase activity was calculated as Ab420×380/Time (minutes). To determine the total amount of protein present in each assayed sample 200 μl of cold (−20° C.) acetone was added to 50 μl of the above supernatants, vortexed thoroughly and stored at −20° C. for 30 minutes. The samples were then pelleted for 10 minutes at 14000 rpm and the supernatant was discarded. Samples were allowed to dry in a heated evacuating centrifuge and then resuspended in 50 μl dissociation buffer. The protein concentration was then determined using a standard BCA (Pierce) protein determination protocol. Results are reported as β-galactosidase activity per mg of protein.

BHK cells [2] = experiment: viable bacterial counts recovered from infected BHK cells; assay type: cell-based, baby hamster
Experimental: as §1
as §2, with “(PBS). […]” for “(PBS).”

Row | Structure (SMILES) | effect on delivery of plasmid DNA by 15D(pCMVβ) (BHK cells [1]; 15D(pCMVβ) infected monolayers treated just after the adherence/invasion step) | ability of the antimicrobial to mediate bacterial plasmid DNA delivery (BHK cells [1]; SC602(pCMVβ)) | effect on β-galactosidase activity (BHK cells [1]; 15D(pCMVβ) infected BHK cells, treated at various times after the adherence/invasion step) | loss of viable bacteria (BHK cells [2]; 15D(pCMVβ) infected BHK cells, treatment right after to two hours after the adherence/invasion step) [log] | effect of time of addition on β-galactosidase activity (BHK cells [1]; addition 1 to 2 hours after adherence/invasion compared to just after, SC602(pCMVβ)) | effect on number of viable bacteria (BHK cells [2]; after the addition of azithromycin to infected BHK cells)
1 | O=C(O)c1cn(C2CC2)c2cc(N3CCNCC3)c(F)cc2c1=O [ciprofloxacin] | inhibited delivery of the plasmid DNA | unable to mediate DNA delivery | – | – | – | –
2 | C[C@@H]1C[C@@H]([C@H](O)CC2CC(=O)NC(=O)C2)C(=O)[C@@H](C)C1 [cyclohexamide] | – | – | inhibition of β-galactosidase activity | 1 | – | –
3 | CC[C@H]1OC(=O)[C@H](C)[C@@H](O[C@H]2C[C@@](C)(OC)[C@@H](O)[C@H](C)O2)[C@H](C)[C@@H](O[C@@H]2O[C@H](C)C[C@H](N(C)C)[C@H]2O)[C@](C)(O)C[C@@H](C)CN(C)[C@H](C)[C@@H](O)[C@]1(C)O [azithromycin] | – | capable of mediating bacterial-based plasmid DNA delivery | – | – | greatly increased the amount of β-galactosidase activity | no dramatic decrease in the number of viable bacteria was detected
